The values below come from patent US10226471B2, “Modified-release dosage forms of 5-HT2C agonists useful for weight management” (Arena Pharmaceuticals, Inc., priority 2010, dated 2019).

Data set [1] can be described thus: Solubility of salts in water (UPLC or gravimetry). The data set is classed as physicochemical. The protocol: Acquity ultra performance liquid chromatography (UPLC) from Waters was used for solubility and stoichiometry determination. […] UPLC was equipped with Acquity PDA detector. UPLC mobile phase solvent A was 0.1% TFA in DI-water, solvent B was 0.1% TFA in acetonitrile.
Column temperature was 40±5° C. Acquity UPLC® HSS T3 1.8 μm, 2.1×50 mm column was used.
A known amount of sample was dissolved in water and analyzed by UPLC.

Data set [2] can be described thus: Dynamic moisture-sorption (DMS). The following applies: for hygroscopicity by DMS: isotherm 25° C.; for DMS weight gain at 90% RH: out to and including the 90% RH hold at 25° C. The data set is classed as physicochemical. The method, then:
Dynamic moisture-sorption (DMS) studies were conducted using a dynamic moisture-sorption analyzer, VTI Corporation, SGA-100, equipment #0228. Samples were prepared for DMS analysis by placing 5 mg to 20 mg of a sample in a tared sample holder. The sample was placed on the hang-down wire of the VTI balance. A drying step was run, typically at 40° C. and 0.5-1% RH for 1-2 h. The isotherm temperature is 25° C. Defined % RH holds typically ranged from 10% RH to 90% RH or 95% RH, with intervals of 10 to 20% RH. A % weight change smaller than 0.010% over a specified number of minutes (typically 10-20), or up to 2 h, whichever occurs first, is required before continuing to the next % RH hold. The water content of the sample equilibrated as described above was determined at each % RH hold.

A short description of data set [3]: Deliquescence relative humidity (DRH) by water activity meter. The data set is classed as physicochemical. The settings on record: saturated aqueous solution with excess solid, 25° C.
The nature of data set [4]: Biopharmaceutics Classification System classification. It is filed as physicochemical. From the text:
An immediate-release, film-coated 10-mg tablet was developed for the phase 3 clinical trials and commercialization of Compound 1 (Example 5).

Data set [5] can be described thus: 26-day body weight study, oral gavage versus osmotic minipump. It is filed as in vivo, male Sprague Dawley rats. The protocol:
30 male Sprague Dawley rats weighing 275-320 g were singly housed and maintained on a 12 h:12 h light-dark cycle (lights on at 23:00 h). Food and water were available ad libitum at all times except during the first day after pump implantation (see below). All rats were habituated to injection and handling procedures for one week prior to study onset.
For the purposes of dose calculation each rat was assumed to weigh 320 g at the start of the study. Rats receiving Compound 1 hydrochloride salt PO were given a fixed daily dose of 7.68 mg, whereas rats in the pump group received a total fixed daily dose of 4.84 mg (for calculations see Example 2.1).
Osmotic minipumps (Alzet® model 2ML4, Durect Corp, CA) were filled with either vehicle (0.9% saline, n=20), or Compound 1 hydrochloride salt solutions and submerged overnight in a 0.9% saline solution to reach equilibrium. […] All subjects were then implanted with the minipumps. Briefly, under isoflourane anaesthesia the nape of the neck was shaved, a mid-scapular incision was made and a subcutaneous pocket was created for the minipump. A minipump was then inserted into the pocket and the incision was closed using surgical staples. Rats were then returned to homecage for recovery. Rats in VEH and PO groups received pumps primed with vehicle; whereas rats in the PUMP group received Compound 1 hydrochloride salt-filled pumps. Because steady state levels of Compound 1 in vivo in the PUMP group were not predicted to be reached until at least 24 h post-implantation, food was removed from all rats for approximately one day after surgery. At 10:30 h the next day (Day 1) and for all subsequent days, food and body weight was measured for all subjects, and all subjects were administered either saline (for VEH and PUMP groups), or Compound 1 hydrochloride salt (PO group) via oral gavage. Food intake and body weight were measured for a total of 26 days.

The conditions of data set [6]: chronic twice-daily oral administration, high fat diet, 4-week study; cited from earlier work.
The nature of data set [7]: Appearance on exposure to light. It is filed as physicochemical. The following applies: solid removed from the slurry.
Where [8] appears, read: water, thermodynamic from solid, by UPLC, read-out: solubility in water.

Read-outs that look alike come from different tables or passages of the source.

Regarding `C[C@H]1CNCCc2ccc(Cl)cc21.C[C@H]1CNCCc2ccc(Cl)cc21.O.O=C(O)c1cc2ccccc2c(Cc2c(O)c(C(=O)O)cc3ccccc23)c1O` [Compound 1 hemipamoate salt hydrate], in data set [1] (by UPLC), the solubility in water stood at 24 µg/mL. Also, the “hygroscopicity by DMS” value in data set [2] was “slightly hygroscopic”. In addition, the “DMS weight gain at 90% RH” value was “FIG. 41: ~1.472% weight gain at about 90% RH” in data set [2] (listed as Compound 1 Hemipamoate Salt Hydrate, Form I, hydrate) and “about 1.472%” in data set [2] (listed as Compound 1 hemipamoate salt hydrate, Form I, hydrate).

One may read the solubility as how much of the substance goes into solution per volume. Take `C[C@H]1CNCCc2ccc(Cl)cc21.O=C(O)/C=C/C(=O)O` [Compound 1 fumarate salt]: the solubility in data set [1] (setting [8]) worked out at 4800 µg/mL. Further, the “DRH (deliquescence relative humidity)” value in data set [3] was determined as 99 % RH. The “hygroscopicity by DMS” value in data set [2] (listed as Compound 1 Fumarate Salt, Form I, fumarate salt) is “FIG. 13: non-hygroscopic up to 90% RH”; in data set [2] (listed as Compound 1 fumarate salt, Form I, fumarate salt) it was “non-hygroscopic”.

As to `C[C@H]1CNCCc2ccc(Cl)cc21.O=C(O)/C=C\C(=O)O` [Compound 1 maleate salt], in data set [1] (setting [8]), the solubility came to 33000 µg/mL. For the same compound, the “DRH (deliquescence relative humidity)” value in data set [3] is on record as 99 % RH. Moreover, the “hygroscopicity by DMS” value in data set [2] was “not hygroscopic”. In addition, the “DMS weight gain at 90% RH” value in data set [2] (maleate salt) amounted to 0.15%.

Turning to `C[C@H]1CNCCc2ccc(Cl)cc21.C[C@H]1CNCCc2ccc(Cl)cc21.Cl.Cl.O`, the solubility entry in data set [1] (pH range of 1 to 7) was “exceeds 400 mg/mL”. In addition, the “Biopharmaceutics Classification System solubility class” value in data set [4] was “highly soluble”.

`C[C@H]1CNCCc2ccc(Cl)cc21.Cl` [Compound 1 hydrochloride salt]: the “body weight gain, PUMP group compared to PO group” value in data set [5] (26 days, p=0.0501, slopes differ p<0.01) is given as “lower weight gain in the PUMP group than in the PO group”. For the same compound, the “body weight gain over 26 days compared to saline” value in data set [5] (oral gavage once daily, 24 mg/kg/day (fixed 7.68 mg)) is listed as “significantly decreased”; in data set [5] (osmotic minipump, 15.1 mg/kg/day (fixed 4.84 mg)) it was “significantly decreased”. In data set [6], the “food intake and body weight gain” value was “dose-dependent reductions in food intake and body weight gain”.

As to `C[C@H]1CNCCc2ccc(Cl)cc21.I` [Compound 1 hydroiodide salt], the solubility in data set [1] (water, thermodynamic from solid, 27° C., by gravimetry (confirmed by UPLC), read-out: solubility in water) came out at 5500 µg/mL. Moreover, the “DRH (deliquescence relative humidity)” value in data set [3] was 99 % RH. In data set [7], the “colour change on exposure to light” value is recorded as “did yellow noticeably within hours when exposed to light”. The “hygroscopicity by DMS” value is “FIG. 7: non-hygroscopic” in data set [2] (Form I, hydroiodide salt) and “non-hygroscopic” in data set [2] (hydroiodide salt).

`C[C@H]1CNCCc2ccc(Cl)cc21.C[C@H]1CNCCc2ccc(Cl)cc21.O=S(=O)(O)c1cccc2c(S(=O)(=O)O)cccc12` [Compound 1 heminapadisilate salt]: in data set [1] (by UPLC), the solubility in water was 2370 µg/mL.
